Measurements: patent US20260125382A1, “COMPOUNDS FOR INHIBITING OR DEGRADING CDK2 AND/OR CDK9 AND MEDICINAL USE THEREOF” (KOREA RESEARCH INSTITUTE OF CHEMICAL TECHNOLOGY, priority 2022, published 2026)

Experiments:
CDK2 = target: T1, CDK2 (Homo sapiens, UniProt P24941); assay: CDK protein degradation activity (Western blotting), CDK2; type: cell-based; conditions: MDA-MB-231 cells, 16 hours, Western blot
T1 construct: endogenous in cells; host or cells: MDA-MB-231
Summary of the method: (§1)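 Breast cancer line MDA-MB-231, 16 h compound treatment (100 nM–10 μM final, three doses). Immunoblot quantification of CDK2/CDK9 versus tubulin, normalized to DMSO control.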

CDK9 = target: T2, CDK9 (Homo sapiens, UniProt P50750); assay: CDK protein degradation activity (Western blotting), CDK9; type: cell-based; conditions: MDA-MB-231 cells, 16 hours, Western blot
T2 construct: endogenous in cells; host or cells: MDA-MB-231
T2 sequence (P50750 whole entry): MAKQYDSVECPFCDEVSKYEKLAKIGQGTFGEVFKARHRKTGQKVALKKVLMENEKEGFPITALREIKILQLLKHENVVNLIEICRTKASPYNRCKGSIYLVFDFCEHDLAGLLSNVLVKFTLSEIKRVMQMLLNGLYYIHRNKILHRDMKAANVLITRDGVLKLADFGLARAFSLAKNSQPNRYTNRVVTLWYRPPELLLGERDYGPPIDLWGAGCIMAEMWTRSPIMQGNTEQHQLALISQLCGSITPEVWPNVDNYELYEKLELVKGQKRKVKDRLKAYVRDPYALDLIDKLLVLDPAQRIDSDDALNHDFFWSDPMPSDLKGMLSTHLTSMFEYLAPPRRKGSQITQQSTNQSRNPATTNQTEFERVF
Summary of the method: as §1

Row | Structure (SMILES) | Enzyme degradation CDK2 (% remaining) @ 0.1 μM (CDK2) | Enzyme degradation CDK2 (% remaining) @ 1 μM (CDK2) | Enzyme degradation CDK2 (% remaining) @ 10 μM (CDK2) | Enzyme degradation CDK9 (% remaining) @ 0.1 μM (CDK9) | Enzyme degradation CDK9 (% remaining) @ 1 μM (CDK9) | Enzyme degradation CDK9 (% remaining) @ 10 μM (CDK9)
1 | O=C1CC[C@H](N2C(=O)c3cc(F)c(N4CCC(C(=O)N5CCC6(CC5)CC(N5CCN(c7ccc(Nc8ncnc9c8ncn9C8CC(NC(=O)c9c(Cl)cccc9Cl)C8)cc7)CC5)C6)CC4)cc3C2=O)C(=O)N1 (stereo partly drawn) [Compound 464, 2,6-dichloro-N-((1s,3s)-3-(6-((4-(4-(7-(1-(2-(2,6-dioxopiperidin-3-yl)-6-fluoro-1,3-dioxoisoindolin-5-yl)piperidin-4-carbonyl)-7-azaspiro[3.5]nonan-2-yl)piperazin-1-yl)phenyl)amino)-9H-purin-9-yl)cyclobutyl)benzamide] | 40% | 30% | 30% | 0/0/0% | 0/0/0% | 0/0/0%
2 | Cc1cccc(C(=O)N[C@H]2C[C@@H](n3cnc4c(Nc5ccc(N6CCN(C7CC8(CCN(C(=O)C9CCN(c%10cc%11c(cc%10F)C(=O)N([C@H]%10CCC(=O)NC%10=O)C%11=O)CC9)CC8)C7)CC6)cc5)ncnc43)C2)n1 [Compound 465, N-((1s,3s)-3-(6-((4-(4-(7-(1-(2-(2,6-dioxopiperidin-3-yl)-6-fluoro-1,3-dioxoisoindolin-5-yl)piperidin-4-carbonyl)-7-azaspiro[3.5]nonan-2-yl)piperazin-1-yl)phenyl)amino)-9H-purin-9-yl)cyclobutyl)-6-methylpicolinamide] | 50/50/50% | 50/50/50% | 50/50/50% | 0/0/0% | 0/0/0% | 0/0/0%

Next, values leading:

Row | Enzyme degradation CDK2 (% remaining) @ 0.1 μM (CDK2) | Enzyme degradation CDK2 (% remaining) @ 1 μM (CDK2) | Enzyme degradation CDK2 (% remaining) @ 10 μM (CDK2) | Enzyme degradation CDK9 (% remaining) @ 0.1 μM (CDK9) | Enzyme degradation CDK9 (% remaining) @ 1 μM (CDK9) | Enzyme degradation CDK9 (% remaining) @ 10 μM (CDK9) | Structure (SMILES)
3 | 30/30/30% | 30/30/30% | 30/30/30% | 0/0/0% | 0/0/0% | 0/0/0% | O=C1CCC(N2C(=O)c3cc(F)c(N4CCC(C(=O)N5CCC(CCN6CCN(c7ccc(Nc8ncnc9c8ncn9[C@H]8C[C@@H](NC(=O)c9c(Cl)cccc9Cl)C8)cc7)CC6)CC5)CC4)cc3C2=O)C(=O)N1 (stereo partly drawn) [Compound 463, 2,6-dichloro-N-((1s,3s)-3-(6-((4-(4-(2-(1-(1-(2-(2,6-dioxopiperidin-3-yl)-6-fluoro-1,3-dioxoisoindolin-5-yl)piperidin-4-carbonyl)piperidin-4-yl)ethyl)piperazin-1-yl)phenyl)amino)-9H-purin-9-yl)cyclobutyl)benzamide]
4 | 30% | 20% | 20% | 0/0/0% | 0/0/0% | 0/0/0% | O=C1CC[C@H](N2C(=O)c3ccc(N4CC(C(=O)N5CCC(CN6CCN(c7ccc(Nc8ncnc9c8ncn9C8CC(NC(=O)c9cccc(F)n9)C8)cc7)CC6)CC5)C4)cc3C2=O)C(=O)N1 (stereo partly drawn) [Compound 466, N-((1s,3s)-3-(6-((4-(4-((1-(1-(2-(2,6-dioxopiperidin-3-yl)-1,3-dioxoisoindolin-5-yl)azetidin-3-carbonyl)piperidin-4-yl)methyl)piperazin-1-yl)phenyl)amino)-9H-purin-9-yl)cyclobutyl)-6-fluoropicolinamide]
5 | 40% | 30% | 30% | 0/0/0% | 0/0/0% | 0/0/0% | O=C1CC[C@H](N2C(=O)c3ccc(N4CCC(C(=O)N5CCC(CN6CCN(c7ccc(Nc8ncnc9c8ncn9C8CC(NC(=O)c9cccc(F)n9)C8)cc7)CC6)CC5)CC4)cc3C2=O)C(=O)N1 (stereo partly drawn) [Compound 467, N-((1s,3s)-3-(6-((4-(4-((1-(1-(2-(2,6-dioxopiperidin-3-yl)-1,3-dioxoisoindolin-5-yl)piperidin-4-carbonyl)piperidin-4-yl)methyl)piperazin-1-yl)phenyl)amino)-9H-purin-9-yl)cyclobutyl)-6-fluoropicolinamide]
